# Measured values taken from patent publication US11633512B2, “Method for disinfecting soils or other agricultural growing media” (Agrozono, S.L., priority 2017, dated 2023).
# Where two headings read alike, the source gives them in different places.
# Columns and labels:
# [1] = system: microorganisms; settings: cited from earlier work
# [2] = system: nematodes (Meloidogyne); assay: Disinfection of nematodes in Padrón pepper crop (greenhouse); type: in vivo, Meloidogyne sp.
# Protocol: On a 500 m^2 surface of a greenhouse, with a water consumption of 3000 l/h, the disinfection with ozone was performed at a dose of 6 ppm, revising with the REDOX readings that a reading of 1000 mV is obtained in the farthest drip emitters, starting from a value of 185 mV in the irrigation water without ozone.
# When the treatment ends, the inoculation of the microorganism formula (1) is performed (see example 1). Seven days after performing the treatment, samples of earth are taken to see the level of nematode infestation, observing a decrease of 90% of the population.
# [3] = system: Erwinia amylovora and Clavibacter michiganensis; assay: Disinfection of infected soil in containers: survival of phytopathogenic bacteria; type: in vivo
# Protocol: In order to achieve the aforementioned objectives, soil without crops was infected with the phytopathogenic species Sclerotinia, Fusarium, Erwinia, Phytophthora and Clavibacter. The assay was performed in Lorca (Murcia). It took place in open air in bins with soil without crops and wherein tomatoes, peppers and melons had been grown previously. After performing the first application of the method of the present invention, tomato plants, Lycopersicum esculentum, were transplanted, the response of the plants to the treatments being evaluated.
# The microbiological content of the soil was evaluated at different depths: 20, 40 and 60 cm., before and after the applications.
# Containers were installed with a known volume of 1000 l (1×1×1 m) in field. Moreover, a medium proceeding from a greenhouse with melons, peppers and tomatoes having been grown there previously was selected and homogenised. Subsequently, the containers were filled with this medium.
# In the laboratory, the following species were cultivated in vitro: • Phytopathogenic bacteria: Erwinia amylovora and Clavibacter michiganensis • Phytopathogenic fungi: Sclerotinia sp, Fusarium oxysporum and Phytophthora citrophthora
# Each microorganism was grown in liquid medium until reaching a concentration of 10^8 ufc/ml. For each of the bins, 1 litre of microbial solution was prepared.
# Then the pathogenic microorganisms were inoculated in the medium, periodic irrigations were performed until reaching the capacity of the medium, samples were taken at different depths (20 cm, 40 cm and 60 cm) and the phytopathogens were counted in said samples, in order to verify the permanence and presence of phytopathogens in the soil.
# A first application of the disinfection method with ozone was performed. To do so, the ozonation equipment was inserted into the irrigation system and the parameters of said equipment were adjusted in order to achieve ozonated water with at least 2 ppm of dissolved ozone. Subsequently, the soil was left to rest for 30 min and the tomato plants, Lycopersicum esculentum, were transplanted. Subsequently, a second application of the disinfection method with ozone was performed in the same conditions indicated previously and, after letting the treated soil rest for 30 min, the microorganism formula (1) was inoculated.
# In order to analyse the effect of the treatment on the disinfection of the soil, samples were taken at different depths (20 cm, 40 cm and 60 cm) and on different dates, and the microbial load in each of the samples was analysed.
# In this section the data obtained is described. As explained in the assay protocol, soil samples were taken at different depths (20 cm, 40 cm and 60 cm) and quality controls were performed quantifying the number of pathogenic fungi and bacteria present.
# [4] = system: coliform bacteria; settings: cited from earlier work
# [5] = system: nematodes; assay: Evolution of nematodes in soil after ozone treatment and inoculation of microorganisms; type: in vivo; settings: 5.5 ppm of ozone for 2 hours; before treatment 480 juveniles/100 cc of earth
# [6] = system: Sclerotinia sp, Fusarium oxysporum and Phytophthora citrophthora; assay: Disinfection of infected soil in containers: survival of phytopathogenic fungi; type: in vivo; set-up: reduction of pathogenic fungi: concentration or dose not given beside the values
# [7] = system: tomato plants, Lycopersicum esculentum; assay: Phytotoxicity and plant development of tomato plants transplanted into treated soil; type: in vivo
# Protocol: Afterwards, as mentioned earlier, once the first disinfection was finished, tomato seedlings were transplanted into the bins in order to evaluate the “residual effect” of the treatment. Subsequently, the study of the plant development of the plants was performed.
# After the first application of the disinfection method, on 19 Sep. 2014, 2 tomato plants were transplanted per container. The residual effect of the ozone was evaluated.
# Throughout the assay, the parameters evaluated were: • Flow rate and ppm ozone at the outlet. • Microbial evaluation of the soil (t=0; t=7 days and t=30 days). • Relationship of the depth with the possible fungicidal effect. • Having established the tomato plants, it was evaluated if the treatments caused phytotoxicity.
# The parameters that will be observed in the crop will be the appearance of necrosis and burning on leaves and fruits. • Plant development of the crop.
# After the first application of the treatment with ozone, 2 tomato plants were transplanted into each of the containers. The growth of the plants was evaluated for three months, ending the analysis of this parameter on 2 January due to frost in the area (see FIGS. 5a and 5b).
# [8] = cited from earlier work
structure (smiles),measurement,setting,value
O=[O+][O-] [ozone],application period necessary for disinfection,[1],5 s
same,time needed in order to eliminate microorganisms,[1],four
same,Meloidogyne sp. after the disinfection,"[2]; ozonated irrigation, crop in full production, before disinfection 88 juveniles/100 cc soil",8 juveniles/1 cc soil
same,decrease of the nematode population,"[2]; ozone 6 ppm, then inoculation of microorganism formula (1), soil samples seven days after treatment",90%
same,mortality of pathogenic mesophilic bacteria,[3]; after first application of ozonated water,less than 50%
same,reduction of pathogenic mesophilic bacteria,[3]; after second application,50%
same,reduction of pathogenic mesophilic bacteria,"[3]; after second application, listed as ozonated water",at least 50%
same,reduction of populations of pathogenic bacteria compared with control,"[3]; application 1, all depths tested except 60 cm",less than 50%
same,completeness of reduction of pathogenic bacteria,[3]; application 2,the reduction was not complete
same,reduction of pathogenic mesophilic bacteria,"[3]; second application, depth 60 cm",60%
same,"time to kill 99% of 60,000 coliform bacteria/ml",[4],2.8 s
same,presence of juveniles after the treatment with ozone,[5],44 /100 cc of earth
same,reduction of pathogenic fungi,"[6]; application 1, 24 hours after application, depth 20 cm",100%
same,reduction of pathogenic fungi,"[6]; application 1, 24 hours after application, depth 60 cm",100%
same,reduction of pathogenic fungi,"[6]; application 2, depth 20 cm",100%
same,fungi present a month after application,"[6]; application 2, depth 20 cm, 30 days",traces of fungi appearing a month later
same,reduction of pathogenic fungi,"[6]; application 2, depth 40 cm, effect prolonged for 30 days",100%
same,reduction of pathogenic fungi,"[6]; application 2, depth 60 cm, effect prolonged for 30 days",100%
same,disinfection against the phytopathogenic fungi tested,"[6]; overall result of the soil assays, ozonated water at least 2 ppm",100%
same,plant development of tomato plants,"[7]; plants transplanted after first application into infected, treated soil",vigorous plant development
same,phytotoxicity: growth and plant development,[7]; three months after the transplant,normal growth and plant development
same,useful life of ozone,[8]; water temperature of 15° C.,30 min
same,useful life of ozone,[8]; water temperature of 25° C.,15 min
same,time until degradation of the ozone into oxygen,"[8]; water without organic matter, pH of 7, water temperature of 15° C.",about 30 minutes
